# Measured values: US11452718B2 (AVALYN PHARMA INC., priority 2012, dated 2022)
# B1: reduced rhTrx: stable reduced form of recombinant human thioredoxin (protein, UniProt P10599 2-105, looked up)
# Thioredoxin: VKQIESKTAFQEALDAAGDKLVVVDFSATWCGPCKMIKPFFHSLSEKYSNVIFLEVDVDDCQDVASECEVKCMPTFQFFKKGQKVGEFSGANKEKLEATINELV
# modifications: reduced form
# Key:
# [1] = Pharmacokinetics and tissue distribution (lung, plasma, heart, kidney) of co-solvent formulations, bolus intratracheal aerosol; assay type: in vivo, Sprague-Dawley rats; conditions: for Analyte in lung tissue, Mean: about 4 mg/kg pirfenidone IT bolus aerosol
# Description: Selected formulations were prepared for pharmacokinetic analysis following aerosol delivery to rat lung. […] Formulations prepared for this study are outlined in Table 9. […] The sample was agitated until completely dissolved. […] Filtered samples were analyzed by HPLC.
# [2] = in vivo; cited from earlier work
# cancer patients = conditions: cited from earlier work
# [3] = test system: relapsed/refractory multiple myeloma; conditions: cited from earlier work
# PI3K = conditions: cited from earlier work
# mTOR = mTOR (Homo sapiens, UniProt P42345); conditions: cited from earlier work
# breast cancer stem cells = conditions: mouse, in vivo; cited from earlier work
# p110-γ and p110-δ = conditions: versus the other isoforms; cited from earlier work
# [4] = test system: EGFR mutation positive patients; conditions: cited from earlier work
# [5] = test system: sol elastase activity of CF sputum; conditions: direct treatment of unprocessed CF sputum; cited from earlier work
molecule,measurement,setting,value
O=C(O)c1ccc(=O)n(-c2ccccc2)c1,"Analyte in lung tissue, Mean",[1]; 0 MIN,0.00 μg/gram
same,"Analyte in lung tissue, Mean","[1]; Group 1, 0.0333 hr",0.12 μg/gram
same,"Analyte in lung tissue, Mean","[1]; Group 1, 0.0667 hr",0.13 μg/gram
same,"Analyte in lung tissue, Mean","[1]; Group 1, 0.1 hr",0.48 μg/gram
same,"Analyte in lung tissue, Mean","[1]; Group 1, 0.167 hr",0.49 μg/gram
same,"Analyte in lung tissue, Mean","[1]; Group 1, 0.333 hr",0.96 μg/gram
same,"Analyte in lung tissue, Mean","[1]; Group 1, 0.667 hr",0.96 μg/gram
same,"Analyte in lung tissue, Mean","[1]; Group 1, 1 hr",0.73 μg/gram
same,"Analyte in lung tissue, Mean","[1]; Group 1, 2 hr",0.21 μg/gram
same,"Analyte in lung tissue, Mean","[1]; Group 1, 2.5 hr",0.10 μg/gram
same,"Analyte in lung tissue, Mean","[1]; Group 1, […]",0.48 μg/gram
same,"Analyte in lung tissue, Mean","[1]; Group 3, 0.0333 hr",0.05 μg/gram
same,"Analyte in lung tissue, Mean","[1]; Group 3, 0.0667 hr",0.36 μg/gram
same,"Analyte in lung tissue, Mean","[1]; Group 3, 0.1 hr",0.55 μg/gram
same,"Analyte in lung tissue, Mean","[1]; Group 3, 0.167 hr",0.86 μg/gram
same,"Analyte in lung tissue, Mean","[1]; Group 3, 0.333 hr",1.09 μg/gram
same,"Analyte in lung tissue, Mean","[1]; Group 3, 0.667 hr",0.81 μg/gram
same,"Analyte in lung tissue, Mean","[1]; Group 3, 1 hr",0.70 μg/gram
same,"Analyte in lung tissue, Mean","[1]; Group 3, 2 hr",0.32 μg/gram
same,"Analyte in lung tissue, Mean","[1]; Group 3, 2.5 hr",0.14 μg/gram
same,"Analyte in lung tissue, Mean","[1]; Group 3, […]",0.52 μg/gram
same,"Analyte in lung tissue, Mean","[1]; Group 5, 0.0333 hr",0.17 μg/gram
same,"Analyte in lung tissue, Mean","[1]; Group 5, 0.0667 hr",0.42 μg/gram
same,"Analyte in lung tissue, Mean","[1]; Group 5, 0.1 hr",0.35 μg/gram
same,"Analyte in lung tissue, Mean","[1]; Group 5, 0.167 hr",0.53 μg/gram
same,"Analyte in lung tissue, Mean","[1]; Group 5, 0.333 hr",1.32 μg/gram
same,"Analyte in lung tissue, Mean","[1]; Group 5, 0.667 hr",0.96 μg/gram
same,"Analyte in lung tissue, Mean","[1]; Group 5, 1 hr",0.75 μg/gram
same,"Analyte in lung tissue, Mean","[1]; Group 5, 2 hr",0.18 μg/gram
same,"Analyte in lung tissue, Mean","[1]; Group 5, 2.5 hr",0.10 μg/gram
same,"Analyte in lung tissue, Mean","[1]; Group 5, […]",0.45 μg/gram
same,"Analyte in lung tissue, Mean","[1]; Group 6, 0.0333 hr",0.17 μg/gram
same,"Analyte in lung tissue, Mean","[1]; Group 6, 0.0667 hr",0.43 μg/gram
same,"Analyte in lung tissue, Mean","[1]; Group 6, 0.1 hr",0.37 μg/gram
same,"Analyte in lung tissue, Mean","[1]; Group 6, 0.167 hr",0.64 μg/gram
same,"Analyte in lung tissue, Mean","[1]; Group 6, 0.333 hr",0.94 μg/gram
same,"Analyte in lung tissue, Mean","[1]; Group 6, 0.667 hr",0.92 μg/gram
same,"Analyte in lung tissue, Mean","[1]; Group 6, 1 hr",0.78 μg/gram
same,"Analyte in lung tissue, Mean","[1]; Group 6, 2 hr",0.24 μg/gram
same,"Analyte in lung tissue, Mean","[1]; Group 6, 2.5 hr",0.14 μg/gram
same,"Analyte in lung tissue, Mean","[1]; Group 6, […]",0.43 μg/gram
O=C(O)c1ccc(=O)n(-c2ccccc2)c1 [5-carboxy-pirfenidone],share of urinary excretion being the primary metabolite,[2],95%
same,appearance of metabolite after direct aerosol administration to the lung,[1]; primary pirfenidone liver metabolite,delayed appearance
N#CC1(c2ccc(NC(=O)c3cccnc3NCc3ccncc3)cc2)CCCC1 [Apatinib],dose limiting toxicities,cancer patients; 1000 mg/day,3 of 3
same,complete response,"cancer patients; 65 cancer patients, Phase I/II",1.54%
same,partial response,"cancer patients; 65 cancer patients, Phase I/II",12.31%
same,progressive disease,"cancer patients; 65 cancer patients, Phase I/II",20%
same,stable disease,"cancer patients; 65 cancer patients, Phase I/II",66.15%
same,well tolerated dose,cancer patients; daily for 28 days,below 750 mg/day
same,maximum tolerated dose,"cancer patients; human, in vivo",850 mg/day
CC(C)C[C@H](NC(=O)[C@H](Cc1ccccc1)NC(=O)c1cnccn1)B(O)O [Bortezomib],patients with peripheral neuropathy,"[3]; human, in vivo",30%
same,time to peak concentrations,[3]; intravenous administration,about 30 minutes
Cc1c(CN2CCN(S(C)(=O)=O)CC2)sc2c(N3CCOCC3)nc(-c3cnc(N)nc3)nc12 [GNE-477],IC50,mTOR,21 nM
CC[C@@H](C(=O)[C@@H](C)[C@@H](O)[C@H](C)[C@@H]1O[C@@H]([C@@H](CC)C(=O)O)CC[C@@H]1C)[C@H]1O[C@]2(C=C[C@@H](O)[C@]3(CC[C@@](C)([C@H]4CC[C@](O)(CC)[C@H](C)O4)O3)O2)[C@H](C)C[C@@H]1C [Salinomycin],effectiveness relative to paclitaxel,breast cancer stem cells,at least 100 times
Nc1nc(N)c2nc(-c3cccc(O)c3)c(-c3cccc(O)c3)nc2n1 [TG100-115],better potency against p110-γ and p110-δ,p110-γ and p110-δ,5-10 fold
C#Cc1cccc(Nc2ncnc3cc(OCCOC)c(OCCOC)cc23)c1 [erlotinib],response rate,[4]; EGFR mutation positive patients,approximately 60%
same,time to development of resistance from the start of treatment,"[4]; human, in vivo",8-12 months
DNase,increase of elastase activity,[5],190%
B1,increase of elastase activity,[5],60%
